For orientation: inhibition means the relative decrease from the control value, in per cent.

Format in all cases: biochemical
For one test, the target named is MMP-8 (Homo sapiens, UniProt P22894). As to the kind of experiment: MMP compound screening with Fluorimetric SensoLyte 390 Generic MMP Activity Kit, recombinant MMP-8. As to the method:
(§1) The activities were determined using Fluorimetric SensoLyte® 390 Generic MMP Activity Kit from Anaspec (cat # 72202). This assay kit can detect the activity of several MMPs such as MMP-1, 2, 7, 8, 9, 13, 14,15,16 and 24.
(§2) For screening MMP compounds, activated 2 nM of recombinant MMP-2, 8, 9 or 13 are pre-incubated with MMP compound (inhibitor) for 30 min at 37°C. The substrate is added and the inhibition of MMP activity is expressed as % of total activity (without the inhibitor incubation).

A further test has as its target MMP-9 (Homo sapiens, UniProt P14780). As to the kind of experiment: MMP compound screening with Fluorimetric SensoLyte 390 Generic MMP Activity Kit, recombinant MMP-9. As to the method:
as §1, §2

The next test has as its target T1, MMP-2 (Homo sapiens, UniProt P08253).
T1 sequence (P08253 110-660): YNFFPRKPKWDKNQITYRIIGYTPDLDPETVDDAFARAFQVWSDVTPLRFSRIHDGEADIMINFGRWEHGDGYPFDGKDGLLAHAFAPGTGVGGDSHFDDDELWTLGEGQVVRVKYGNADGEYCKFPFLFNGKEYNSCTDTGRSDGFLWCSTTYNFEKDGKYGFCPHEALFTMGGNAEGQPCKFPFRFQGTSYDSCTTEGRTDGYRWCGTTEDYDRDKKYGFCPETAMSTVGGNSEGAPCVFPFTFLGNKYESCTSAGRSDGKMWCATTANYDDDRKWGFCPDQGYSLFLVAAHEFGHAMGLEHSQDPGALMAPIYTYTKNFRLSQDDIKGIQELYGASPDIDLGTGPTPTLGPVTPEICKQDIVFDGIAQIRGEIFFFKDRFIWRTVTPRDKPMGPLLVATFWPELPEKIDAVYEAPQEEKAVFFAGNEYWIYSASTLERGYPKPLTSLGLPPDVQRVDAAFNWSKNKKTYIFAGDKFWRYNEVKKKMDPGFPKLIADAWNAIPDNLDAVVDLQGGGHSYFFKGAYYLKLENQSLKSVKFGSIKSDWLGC
Put plainly: MMP compound screening with Fluorimetric SensoLyte 390 Generic MMP Activity Kit, recombinant MMP-2. As to the method: as §1, §2

Another test deals with MMP13 (Homo sapiens, UniProt P45452). Put plainly: MMP compound screening with Fluorimetric SensoLyte 390 Generic MMP Activity Kit, recombinant MMP-13. As to the method:
as §1, §2

Sequence of MMP-9 (P14780 107-707 limits assumed, species assumed): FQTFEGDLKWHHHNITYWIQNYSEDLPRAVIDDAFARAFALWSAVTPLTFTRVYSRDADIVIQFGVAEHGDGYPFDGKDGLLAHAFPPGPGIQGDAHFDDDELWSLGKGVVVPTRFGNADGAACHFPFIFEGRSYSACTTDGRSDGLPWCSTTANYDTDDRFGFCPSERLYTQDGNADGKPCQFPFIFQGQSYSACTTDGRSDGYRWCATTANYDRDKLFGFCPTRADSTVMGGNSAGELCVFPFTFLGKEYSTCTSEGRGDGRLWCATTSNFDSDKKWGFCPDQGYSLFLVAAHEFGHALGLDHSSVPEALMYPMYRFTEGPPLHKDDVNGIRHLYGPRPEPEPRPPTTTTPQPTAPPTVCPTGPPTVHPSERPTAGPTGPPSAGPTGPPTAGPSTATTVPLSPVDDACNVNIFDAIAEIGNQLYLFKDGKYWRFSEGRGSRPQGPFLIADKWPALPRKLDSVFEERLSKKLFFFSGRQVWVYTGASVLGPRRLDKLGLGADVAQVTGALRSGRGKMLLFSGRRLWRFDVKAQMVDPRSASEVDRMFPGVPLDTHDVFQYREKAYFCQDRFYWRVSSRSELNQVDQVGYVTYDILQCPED
Sequence of MMP-8 (P22894 101-467, species assumed): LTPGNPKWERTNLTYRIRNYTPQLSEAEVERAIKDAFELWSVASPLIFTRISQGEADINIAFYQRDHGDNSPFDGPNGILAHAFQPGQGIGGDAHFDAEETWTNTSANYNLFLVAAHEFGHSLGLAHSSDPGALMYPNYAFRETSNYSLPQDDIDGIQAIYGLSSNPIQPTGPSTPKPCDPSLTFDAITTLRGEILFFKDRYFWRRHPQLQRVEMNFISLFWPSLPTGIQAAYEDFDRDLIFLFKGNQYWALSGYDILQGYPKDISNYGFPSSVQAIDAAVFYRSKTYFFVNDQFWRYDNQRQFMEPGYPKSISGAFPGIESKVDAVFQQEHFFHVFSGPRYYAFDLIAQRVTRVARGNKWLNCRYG

Consider `CCN1/C(=C/C=C/C=C/C2=[N+](CCCCCC(N)=O)c3ccc4c(S(=O)(=O)O)cc(S(=O)(=O)O)cc4c3C2(C)C)C(C)(C)c2c1ccc1c(S(=O)(=O)[O-])cc(S(=O)(=O)O)cc21` [Cy5.5], for which the inhibition at 0.1 µM on MMP-8 (0.1uM) came to 0%; at MMP-9 (0.1uM), 12%; at MMP-2 (0.1uM) it was 0%; on MMP13 (0.1uM), 0%. Moreover, the inhibition at 1 µM on MMP-8 (1uM) stood at 1%; at MMP-9 (1uM), 17%; at MMP-2 (1uM), 0%; at MMP13 (1uM) it was 7%.

These data come from patent publication EP2644601A1, “Compounds with matrix-metalloproteinase inhibitory activity and imaging agents thereof” (Westfälische Wilhelms-Universität Münster, priority 2012, dated 2013).
